Values of other authors in US20090081312A1, “PREVENTION AND TREATMENT OF ALVEOLAR OSTEITIS” (priority 2007, published 2009).

Tested on: bacterial cell growth
Conditions: silver ion; B Gibbins, Ostomy Wound Management 2003

[Ag+] [silver ion, silver]
quantity sufficient to prevent bacterial cell growth: one
